Experimental findings from patent US20220402916A1, “SMALL MOLECULE INHIBITORS OF KRAS G12C MUTANT” (Merck Sharp & Dohme Corp., priority 2019, published 2022) are described below.

The structures appear in SMILES notation. Read-outs that look alike come from different tables or passages of the source.

For assay [1], the system named is NCI-H358 cells. Nature of the assay: Cellular phospho-ERK assay. The settings on record: NCI-H358 cells, 2 hour incubation, ratio of p-Erk vs total Erk, read-out: IC50. In kind it is cell-based. Here is the method:
NCI-H358 cells (ATCC® CRL-5807™) were cultured in T150 flask in growth medium (RPMI medium 1640-GlutaMAX™-1 (ThermoFisher Scientific 61870) containing 10% fetal bovine serum (ThermoFisher Scientific 10091148)). The cells were harvested in growth medium after TrypLE (ThermoFisher scientific 12604021) digestion and were seeded in 384-well collagen coated cell culture plate (Corning 356702) at a density of 15,000 cells/well, and incubated at 37° C., 5% CO2 overnight. The compound dose-response titrations were prepared and appropriate amounts of compounds were dispensed in 384-well intermediate plate using Echo 550 liquid handler. RPMI medium 1640-GlutaMAX™-I were added to the intermediate plate and transferred to 384-well cell culture plate, which was incubated at 37° C., 5% CO2 for 2 hours. After removal of medium from the plate, cells were lysed in lysis buffer from Alpha SureFire® Ultra™ Multiplex p-Erk and total Erk assay kit (PerkinElmer MPSU-PTERK) containing Halt™ Protease and Phosphotase inhibitor cocktail (ThermoFisher Scientific 78446) at room temperature with constant shaking at 300 rpm for 30 minutes. The cell lysates were then transferred to OptiPlate-384 plate (PerkinElmer 6005620) and the phosphorylation of Erk and total Erk levels were detected by Alpha SureFire Ultra Multiplex p-Erk kit (PerkinElmer MPSU-PTERK) following the manufacturer's protocol. Assay plates were read on an EnVision Multimode Plate Reader (PerkinElmer) and the ratio of p-Erk vs total Erk in each well was used as the final readout. Dose response curves were analyzed using a 4-parameter logistic model to calculate IC50 values using spotfire software.

The target of assay [2] is T1, Biotinylated KRAS G12C protein (Homo sapiens, UniProt P01116, C118S/C51S/C80L/G12C).
T1 construct: 183 amino acids; biotin on K10
The assay can be described thus: SOS-catalyzed nucleotide exchange assay. In kind it is biochemical. The settings on record: apparent potency; preincubation time of 60 minutes prior to addition of SOS.

T1 sequence (P01116 with tags, fused parts or gaps isoform P01116-2 G12C/C51S/C80L/C118S): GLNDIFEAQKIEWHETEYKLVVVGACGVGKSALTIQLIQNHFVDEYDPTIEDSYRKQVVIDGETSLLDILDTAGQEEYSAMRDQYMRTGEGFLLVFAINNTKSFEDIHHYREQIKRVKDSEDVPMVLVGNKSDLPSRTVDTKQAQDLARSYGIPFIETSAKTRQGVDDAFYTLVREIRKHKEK

As a reminder, the IC50 is the concentration needed to halve the response being measured. Take `C=C(F)C(=O)N1CCN(c2cc(C(=O)NC(C)CN3CCC(C)(O)C3)nc3c2CCN(c2cccc4cccc(C)c24)C3)C[C@@H]1CC#N` (single isomer, unassigned) [Compound 77, 4-((S)-3-(cyanomethyl)-4-(2-fluoroacryloyl)piperazin-1-yl)-N—((R or S)-1-((S or R)-3-hydroxy-3-methylpyrrolidin-1-yl)propan-2-yl)-7-(8-methylnaphthalen-1-yl)-5,6,7,8-tetrahydro-1,7-naphthyridine-2-carboxamide]: the IC50 in assay [1] (Homo sapiens, NCI-H358, 2 h) turned out to be 611 nM; in assay [2] it was 5 nM.
Taken in the same sequence, the figures for `C=CC(=O)N1CCN(c2c(C)c(C(=O)N[C@H](C)CN(C)C)nc3c2CCN(c2cccc4cccc(C)c24)C3)C[C@@H]1CC#N` (racemic) [Compound 85, 4-((S)-4-acryloyl-3-(cyanomethyl)piperazin-1-yl)-N—((R)-1-(dimethylamino)propan-2-yl)-3-methyl-7-(8-methylnaphthalen-1-yl)-5,6,7,8-tetrahydro-1,7-naphthyridine-2-carboxamide] were 3550 nM and 180 nM.
In the case of `C=CC(=O)N1CCN(c2cc(C(=O)N[C@H](C)CN3CC(F)(F)C3)nc3c2CCN(c2cccc4cccc(C)c24)C3)C[C@@H]1CC#N` [Compound 68, 4-((S)-4-acryloyl-3-(cyanomethyl)piperazin-1-yl)-N—((R)-1-(3,3-difluoroazetidin-1-yl)propan-2-yl)-7-(8-methylnaphthalen-1-yl)-5,6,7,8-tetrahydro-1,7-naphthyridine-2-carboxamide], the IC50 in assay [1] (Homo sapiens, NCI-H358, 2 h) turned out to be 2890 nM; in assay [2], 29 nM.
On the same counts, the results for `C=CC(=O)N1CCN(c2cc(C(=O)NCC3(N)CCOCC3)nc3c2CCN(c2cccc4cccc(C)c24)C3)C[C@@H]1CC#N` [Compound 90, (S)-4-(4-acryloyl-3-(cyanomethyl)piperazin-1-yl)-N-((4-aminotetrahydro-2H-pyran-4-yl)methyl)-7-(8-methylnaphthalen-1-yl)-5,6,7,8-tetrahydro-1,7-naphthyridine-2-carboxamide] are 2340 nM and 21 nM.
Turning to `C=CC(=O)N1CCN(c2cc(C(=O)N[C@@H]3CCC[C@H]3N(C)C)nc3c2CCN(c2cccc4cccc(C)c24)C3)C[C@@H]1CC#N` (mixture of isomers) [Compound 66, 4-((S)-4-acryloyl-3-(cyanomethyl)piperazin-1-yl)-N-((1R,2R)-2-(dimethylamino)cyclopentyl)-7-(8-methylnaphthalen-1-yl)-5,6,7,8-tetrahydro-1,7-naphthyridine-2-carboxamide, as a mixture with 4-((S)-4-acryloyl-3-(cyanomethyl)piperazin-1-yl)-N-((1S,2S)-2-(dimethylamino)cyclopentyl)-7-(8-methylnaphthalen-1-yl)-5,6,7,8-tetrahydro-1,7-naphthyridine-2-carboxamide], the IC50 was 41 nM in assay [1] (Homo sapiens, NCI-H358, 2 h) and 1 nM in assay [2].
On the same counts, the results for `C=CC(=O)N1CCN(c2cc(C(=O)NC[C@H](C)N)nc3c2CCN(c2cccc4cccc(C)c24)C3)C[C@@H]1CC#N` [Compound 86, 4-((S)-4-acryloyl-3-(cyanomethyl)piperazin-1-yl)-N—((S)-2-aminopropyl)-7-(8-methylnaphthalen-1-yl)-5,6,7,8-tetrahydro-1,7-naphthyridine-2-carboxamide] are 1650 nM and 11 nM.
As to `C=CC(=O)N1CCN(c2cc(C(=O)N[C@H](C)CN(C)C)nc3c2CCN(c2c(Cl)c(C)cc4[nH]ncc24)C3)CC1` [Compound 83, (R)-4-(4-acryloylpiperazin-1-yl)-7-(5-chloro-6-methyl-1H-indazol-4-yl)-N-(1-(dimethylamino)propan-2-yl)-5,6,7,8-tetrahydro-1,7-naphthyridine-2-carboxamide], the IC50 in assay [1] (Homo sapiens, NCI-H358, 2 h) stood at 1600 nM; in assay [2], 90 nM.
On the same counts, the results for `C=CC(=O)N1CCN(c2cc(C(=O)NC3(CC)CCNC3)nc3c2CCN(c2cccc4cccc(C)c24)C3)C[C@@H]1CC#N` (mixture of isomers) [Compound 101, 4-((S)-4-acryloyl-3-(cyanomethyl)piperazin-1-yl)-N-((R)-3-ethylpyrrolidin-3-yl)-7-(8-methylnaphthalen-1-yl)-5,6,7,8-tetrahydro-1,7-naphthyridine-2-carboxamide, as a mixture with 4-((S)-4-acryloyl-3-(cyanomethyl)piperazin-1-yl)-N-((S)-3-ethylpyrrolidin-3-yl)-7-(8-methylnaphthalen-1-yl)-5,6,7,8-tetrahydro-1,7-naphthyridine-2-carboxamide] are 1800 nM and 4.5 nM.
On the same counts, the results for `C=CC(=O)N1CCN(c2cc(C(=O)NC3(C)CCCNC3)nc3c2CCN(c2cccc4cccc(C)c24)C3)C[C@@H]1CC#N` (mixture of isomers) [Compound 102, 4-((S)-4-acryloyl-3-(cyanomethyl)piperazin-1-yl)-7-(8-methylnaphthalen-1-yl)-N-((R)-3-methylpiperidin-3-yl)-5,6,7,8-tetrahydro-1,7-naphthyridine-2-carboxamide, as a mixture with 4-((S)-4-acryloyl-3-(cyanomethyl)piperazin-1-yl)-7-(8-methylnaphthalen-1-yl)-N-((S)-3-methylpiperidin-3-yl)-5,6,7,8-tetrahydro-1,7-naphthyridine-2-carboxamide] are 809 nM and 5.4 nM.
For `C=CC(=O)N1CCN(c2cc(C(=O)NC(C)CN3CCC(C)(O)C3)nc3c2CCN(c2cccc4cccc(C)c24)C3)C[C@@H]1CC#N` (single isomer, unassigned) [Compound 74, 4-((S)-4-acryloyl-3-(cyanomethyl)piperazin-1-yl)-N-((S or R)-1-((R or S)-3-hydroxy-3-methylpyrrolidin-1-yl)propan-2-yl)-7-(8-methylnaphthalen-1-yl)-5,6,7,8-tetrahydro-1,7-naphthyridine-2-carboxamide], the IC50 worked out at 45 nM in assay [1] and 5.4 nM in assay [2].
Regarding `C=CC(=O)N1CCN(c2cc(C(=O)NCCN(C)C)nc3c2CCN(c2cccc4ccccc24)C3)C[C@@H]1CC#N` [Compound 60, (S)-4-(4-acryloyl-3-(cyanomethyl)piperazin-1-yl)-N-(2-(dimethylamino)ethyl)-7-(naphthalen-1-yl)-5,6,7,8-tetrahydro-1,7-naphthyridine-2-carboxamide], the IC50 was 375 nM in assay [1] (Homo sapiens, NCI-H358, 2 h) and 8.8 nM in assay [2].
On the same counts, the results for `C=CC(=O)N1CCN(c2cc(C(=O)NC[C@]3(F)CCCNC3)nc3c2CCN(c2cccc4cccc(C)c24)C3)C[C@@H]1CC#N` [Compound 107, 4-((S)-4-acryloyl-3-(cyanomethyl)piperazin-1-yl)-N-(((S)-3-fluoropiperidin-3-yl)methyl)-7-(8-methylnaphthalen-1-yl)-5,6,7,8-tetrahydro-1,7-naphthyridine-2-carboxamide] are 7350 nM and 54 nM.
On the same counts, the results for `C=CC(=O)N1CCN(c2cc(C(=O)N[C@H](C)CN(C)C)nc3c2CCN(c2cccc4cccc(C)c24)C3)CC1` [Compound 12, (R)-4-(4-acryloylpiperazin-1-yl)-N-(1-(dimethylamino)propan-2-yl)-7-(8-methylnaphthalen-1-yl)-5,6,7,8-tetrahydro-1,7-naphthyridine-2-carboxamide] are 5940 nM and 66 nM.
On the same counts, the results for `C=CC(=O)N1CCN(c2cc(C(=O)Nc3ccccc3CN)nc3c2CCN(c2cccc4cccc(C)c24)C3)C[C@@H]1CC#N` [Compound 94, (S)-4-(4-acryloyl-3-(cyanomethyl)piperazin-1-yl)-N-(2-(aminomethyl)phenyl)-7-(8-methylnaphthalen-1-yl)-5,6,7,8-tetrahydro-1,7-naphthyridine-2-carboxamide] are 6630 nM and 12 nM.
Take `C=C(F)C(=O)N1CCN(c2cc(C(=O)N[C@H](C)CN(C)C(C)C)nc3c2CCN(c2cccc4cccc(C)c24)C3)C[C@@H]1CC#N` [Compound 79, 4-((S)-3-(cyanomethyl)-4-(2-fluoroacryloyl)piperazin-1-yl)-N-((R)-1-(isopropyl(methyl)amino)propan-2-yl)-7-(8-methylnaphthalen-1-yl)-5,6,7,8-tetrahydro-1,7-naphthyridine-2-carboxamide]: the IC50 in assay [1] (Homo sapiens, NCI-H358, 2 h) is 1280 nM; in assay [2] it was 12 nM.
Regarding `C=CC(=O)N1CCN(c2cc(C(=O)NCCC3(N)CCCCC3)nc3c2CCN(c2cccc4cccc(C)c24)C3)C[C@@H]1CC#N` [Compound 92, (S)-4-(4-acryloyl-3-(cyanomethyl)piperazin-1-yl)-N-(2-(1-aminocyclohexyl)ethyl)-7-(8-methylnaphthalen-1-yl)-5,6,7,8-tetrahydro-1,7-naphthyridine-2-carboxamide], the IC50 in assay [1] (Homo sapiens, NCI-H358, 2 h) was 7200 nM; in assay [2] it was 20 nM.
